The results in this text go back to ChEMBL document CHEMBL3856267, “Identification of 5,6-dihydroimidazo[2,1-b]thiazoles as a new class of antimicrobial agents” (Bioorg Med Chem, 2016).

The subject of series [1] is Staphylococcus aureus. In words: Growth inhibition of methicillin-resistant Staphylococcus aureus ATCC 33591 at 64 ug/ml measured after overnight incubation by microdilution broth method relative to control. The format is functional. The note with it: read-out: GI. A general note: Dilution methods test growth across graded concentrations, often in twofold steps.
Series [2] deals with Staphylococcus aureus. The series can be described thus: Antimicrobial activity against methicillin-resistant Staphylococcus aureus ATCC BAA-44 measured after overnight incubation by microdilution broth method. The format is functional.
For series [3], the system named is Staphylococcus aureus. In words: Antimicrobial activity against methicillin-resistant Staphylococcus aureus ATCC 33591 measured after overnight incubation by microdilution broth method. In kind it is functional.
Series [4] is described as follows: Selectivity ratio of MIC90 for methicillin-resistant Staphylococcus aureus ATCC 33591 to MIC90 for methicillin-resistant Staphylococcus aureus ATCC BAA-44. The format is functional.
Series [5] can be described thus: Hemolytic activity in human RBC at 128 ug/ml after 1 hr. The format is ADME, cell-based, Erythrocyte. The note with it: red blood cells, read-out: Activity.
Series [6] can be described thus: Cytotoxicity against HEK cells assessed as reduction in cell viability after 48 hrs by MTT assay. In kind it is toxicity, cell-based, HEK293. To be noted: human, read-out: MIC50. In general terms: Formazan colour is commonly taken as a measure of viable cells.
A short description of series [7]: Antimicrobial activity against vancomycin-intermediate Staphylococcus aureus Mu50 ATCC 700699 measured after overnight incubation by microdilution broth method. The format is functional, Staphylococcus aureus subsp. aureus Mu50.
The nature of series [8]: Selectivity ratio of MIC90 for vancomycin-intermediate Staphylococcus aureus Mu50 ATCC 700699 to MIC90 for methicillin-resistant Staphylococcus aureus ATCC BAA-44. In kind it is functional.
Series [9] is described as follows: Therapeutic index, ratio of IC50 for HEK cells to MIC90 for methicillin-resistant Staphylococcus aureus ATCC BAA-44. To be noted: human, read-out: TI. The format is cell-based, HEK293.
Series [10] relates to Staphylococcus aureus. In words: Inhibition of Staphylococcus aureus DNA gyrase assessed as reduction in supercoiling of relaxed pHOT-1 after 30 mins by SDS based agarose gel electrophoresis.
The subject of series [11] is Staphylococcus aureus. The series can be described thus: Antimicrobial activity against methicillin-resistant Staphylococcus aureus USA300-0114 infected in Galleria Mellonella assessed as increase in survival of worms at 5 times MIC measured 24 to 48 hrs post dose. The format is functional.
Series [12] has as its system Staphylococcus aureus. The series can be described thus: Antimicrobial activity against methicillin-resistant Staphylococcus aureus USA300-0114 infected in Galleria Mellonella assessed as increase in larvae survival at 10 times MIC measured 24 to 48 hrs post dose. In kind it is functional.

The source made the active and inactive calls. No cut-off for these calls is given here.

One may read the MIC90 as the lowest concentration that inhibits either 90% of growth or 90% of the strains tested, depending on the study. A lower MIC90 goes with higher susceptibility. For the compound `N=C(N)NCCC[C@H]1CN2C(c3ccc4ccccc4c3)=CSC2=N1`, the inhibition of growth at 64 µg/mL with Staphylococcus aureus [1] is greater than 80%. Moreover, the MIC90 in the series on Staphylococcus aureus [2] was determined as 182 µM; against Staphylococcus aureus [3], 364 µM. The Selectivity ratio in [4] is 2. Moreover, the hemolysis at 1 h, 128 ug/ml in series [5] was less than 2%.
For the compound `Cn1cc(C[C@@H]2CN3C(c4ccc5ccccc5c4)=CSC3=N2)c2ccccc21`, the CC50 at 48 h in series [6] came out at 20 µM. Also, the MIC90 in the series on Staphylococcus aureus [2] came to 10 µM; with Staphylococcus aureus [3], 10 µM; in series [7], 40 µM. The Selectivity ratio in [8] came out at 2. The hemolysis at 1 h, 128 ug/ml in series [5] is less than 2%. Also, the selectivity ratio in series [9] turned out to be 2.
For the compound `Cn1cc(C[C@@H]2CN3C(=N2)SC(c2ccccc2)=C3c2ccccc2)c2ccccc21`, in series [6], the CC50 at 48 h was 63 µM. Further, the MIC90 came out at 9.5 µM with Staphylococcus aureus [2], 38 µM against Staphylococcus aureus [3] and 19 µM in [7]. Further, the Selectivity ratio in series [8] was determined as 2. Besides, the hemolysis at 1 h, 128 ug/ml in [5] was less than 2%. In series [9], the selectivity ratio came to 6.6.
Take `CC(C)C[C@@H]1CN2C(=N1)SC(c1ccccc1)=C2c1ccccc1`: the CC50 at 48 h in series [6] is 56 µM. Further, the MIC90 in the series on Staphylococcus aureus [2] is 11 µM; against Staphylococcus aureus [3], 12 µM; in series [7], 24 µM. In [8], the Selectivity ratio worked out at 2. Moreover, the hemolysis at 1 h, 128 ug/ml in [5] is less than 2%. In addition, the selectivity ratio in series [9] was 5. In addition, in the series with Staphylococcus aureus [10], the inhibition entry was “Dose-dependent effect”. Moreover, the result in the series on Staphylococcus aureus [11] and in the series with Staphylococcus aureus [12] was Active.
On to `c1ccc(C[C@H]2CN3C(=N2)SC(c2ccccc2)=C3c2ccccc2)cc1`, for which the inhibition of growth at 64 µg/mL with Staphylococcus aureus [1] was greater than 80%. In addition, the values for the MIC90 against Staphylococcus aureus [2] and against Staphylococcus aureus [3] were 21 µM and 173 µM, respectively. In addition, in series [4], the Selectivity ratio amounted to 2. In series [5], the hemolysis at 1 h, 128 ug/ml was less than 2%.
In the same order, the values of `CC(C)C[C@H]1CN2C(=N1)SC(c1ccccc1)=C2c1ccccc1` are greater than 80%, 24 µM, 48 µM, 2 and less than 2%.
Consider `c1ccc(C[C@@H]2CN3C(=N2)SC(c2ccccc2)=C3c2ccccc2)cc1`, for which, in series [6], the CC50 at 48 h was 71 µM. Further, the MIC90 was 14.6 µM against Staphylococcus aureus [2], 21 µM against Staphylococcus aureus [3] and 42 µM in series [7]. Besides, the Selectivity ratio in series [8] amounted to 2. Moreover, the hemolysis at 1 h, 128 ug/ml in series [5] was less than 2%. Moreover, the selectivity ratio in [9] is 4.9.
For `CC(C)C[C@H]1CN2C(c3ccc4ccccc4c3)=CSC2=N1`, in the series on Staphylococcus aureus [1], the inhibition of growth at 64 µg/mL was greater than 80%. Besides, the MIC90 against Staphylococcus aureus [2] was 51 µM; with Staphylococcus aureus [3] it was 102 µM. Further, the Selectivity ratio in series [4] amounted to 2. Further, the hemolysis at 1 h, 128 ug/ml in series [5] was less than 2%.
Turning to `CN[C@H](CC(C)C)C(=O)N[C@H]1C(=O)N[C@@H](CC(N)=O)C(=O)N[C@H]2C(=O)N[C@H]3C(=O)N[C@H](C(=O)N[C@H](C(=O)O)c4cc(O)cc(O)c4-c4cc3ccc4O)[C@H](O)c3ccc(c(Cl)c3)Oc3cc2cc(c3O[C@@H]2O[C@H](CO)[C@@H](O)[C@H](O)[C@H]2O[C@H]2C[C@](C)(N)[C@H](O)[C@H](C)O2)Oc2ccc(cc2Cl)[C@H]1O` [VANCOMYCIN], the results for the MIC90 (in the series on Staphylococcus aureus [2]; against Staphylococcus aureus [3]; in series [7]) were 4 µg/mL, 2 µg/mL and 8 µg/mL, respectively.
As to `CC(C)C[C@@H]1CN2C(c3ccc4ccccc4c3)=CSC2=N1`, the CC50 at 48 h in [6] stood at 36 µM. The MIC90 was 51 µM with Staphylococcus aureus [2], 51 µM with Staphylococcus aureus [3] and 102 µM in series [7]. Moreover, in series [8], the Selectivity ratio came out at 2. Moreover, the hemolysis at 1 h, 128 ug/ml in series [5] was less than 2%. For the same compound, in [9], the selectivity ratio turned out to be 0.7.
Regarding `N=C(N)NCCC[C@H]1CN2C(=N1)SC(c1ccccc1)=C2c1ccccc1`, in the series with Staphylococcus aureus [1], the inhibition of growth at 64 µg/mL was greater than 80%. The MIC90 with Staphylococcus aureus [2] came out at 338 µM; in the series with Staphylococcus aureus [3], 169 µM. Further, in [4], the Selectivity ratio came out at 2. Besides, the hemolysis at 1 h, 128 ug/ml in series [5] was less than 2%.
As for `N=C(N)NCCC[C@@H]1CN2C(c3ccc4ccccc4c3)=CSC2=N1`, in series [6], the CC50 at 48 h turned out to be 257 µM. The values for the MIC90 (with Staphylococcus aureus [2]; in the series on Staphylococcus aureus [3]; in [7]) were 69 µM, 69 µM and 184 µM, respectively. For the same compound, the Selectivity ratio in series [8] amounted to 2. Further, in series [5], the hemolysis at 1 h, 128 ug/ml is less than 2%. In addition, the selectivity ratio in series [9] is 3.7.
With `Cn1cc(C[C@H]2CN3C(c4ccc5ccccc5c4)=CSC3=N2)c2ccccc21`, the inhibition of growth at 64 µg/mL in the series on Staphylococcus aureus [1] is greater than 80%. Also, the MIC90 against Staphylococcus aureus [2] was determined as 20 µM; against Staphylococcus aureus [3], 162 µM. Moreover, the Selectivity ratio in series [4] stood at 2. Also, the hemolysis at 1 h, 128 ug/ml in [5] was less than 2%.
In the same order, the values of `Cn1cc(C[C@H]2CN3C(=N2)SC(c2ccccc2)=C3c2ccccc2)c2ccccc21` are greater than 80%, 19 µM, 151 µM, 2 and less than 2%.
Take `N=C(N)NCCC[C@@H]1CN2C(=N1)SC(c1ccccc1)=C2c1ccccc1`: the CC50 at 48 h in [6] turned out to be 100 µM. In addition, the MIC90 against Staphylococcus aureus [2] was 338 µM; in the series with Staphylococcus aureus [3] it was 111 µM; in series [7] it was 338 µM. Moreover, the Selectivity ratio in series [8] was determined as 2. For the same compound, the hemolysis at 1 h, 128 ug/ml in series [5] was less than 2%. Further, the selectivity ratio in series [9] was 0.3.
Take `COc1cccc(OC)c1C(=O)N[C@@H]1C(=O)N2[C@@H]1SC(C)(C)[C@@H]2C(=O)O` [METHICILLIN]: the MIC90 (in the series on Staphylococcus aureus [2]; with Staphylococcus aureus [3]; in series [7]) was greater than 128 µg/mL throughout.
Regarding `Oc1ccc(C[C@@H]2CN3C(=N2)SC(c2ccccc2)=C3c2ccccc2)cc1`, the CC50 at 48 h in series [6] turned out to be 72 µM. For the same compound, the MIC90 against Staphylococcus aureus [2] was found to be 31 µM; against Staphylococcus aureus [3], 20 µM; in series [7], 40 µM. Besides, the Selectivity ratio in [8] is 2. Besides, in series [5], the hemolysis at 1 h, 128 ug/ml is less than 2%. Also, the selectivity ratio in series [9] is 2.3.
Take `Oc1ccc(C[C@H]2CN3C(=N2)SC(c2ccccc2)=C3c2ccccc2)cc1`: in the series with Staphylococcus aureus [1], the inhibition of growth at 64 µg/mL is greater than 80%. Moreover, the MIC90 was found to be 42 µM against Staphylococcus aureus [2] and 84 µM in the series on Staphylococcus aureus [3]. Also, in series [4], the Selectivity ratio was determined as 2. The hemolysis at 1 h, 128 ug/ml in series [5] was less than 2%.
